Read-outs that look alike come from different tables or passages of the source.
Experiments:
PTPN2 [1] = molecular target: T1, PTPN2 (Homo sapiens, UniProt P17706); assay: PTPN2 biochemical assay (PhosphoSens, substrate AQT0264); conditions: PhosphoSens substrate AQT0264 20 μM, room temperature; read-out: PTPN2 BCHEM IC50
T1 sequence (P17706 1-415): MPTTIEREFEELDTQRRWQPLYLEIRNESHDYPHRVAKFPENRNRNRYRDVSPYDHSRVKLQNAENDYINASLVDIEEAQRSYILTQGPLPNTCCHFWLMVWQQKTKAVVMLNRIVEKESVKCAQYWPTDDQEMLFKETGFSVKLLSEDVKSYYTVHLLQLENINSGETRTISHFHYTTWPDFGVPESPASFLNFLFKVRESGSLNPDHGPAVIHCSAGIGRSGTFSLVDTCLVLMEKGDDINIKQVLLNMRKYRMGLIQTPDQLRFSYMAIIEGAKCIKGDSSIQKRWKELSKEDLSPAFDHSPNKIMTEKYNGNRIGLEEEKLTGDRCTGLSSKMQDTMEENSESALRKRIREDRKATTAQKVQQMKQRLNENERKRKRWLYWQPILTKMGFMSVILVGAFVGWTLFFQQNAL
Experimental: A PhosphoSens® kinase assay was performed as described by the vendor (AssayQuant Technologies, Marlborough, MA). Briefly, 1000× solutions of compounds were prepared in DMSO via serial dilution of the 10 mM DMSO stocks using 3-fold intervals in a 384-well reagent plate. 50 nL of the compound dilution series was then added to the corresponding wells of a 384-well assay plate. 40 mL of 1.25× substrate (AQT0264) in 1× assay buffer (50 mM HEPES pH 7.5, 500 μM EGTA, […] MgCl2, 0.01% Brij-35, 1% Glycerol, 1 mM DTT, and 0.2 mg/mL BSA) was transferred to each well of the assay plate to achieve a final substrate concentration of 20 μM. Finally, […] of 5×PTPN2 enzyme stock was added to each well of the assay plate for a final enzyme concentration of […]. Reaction progress curves were collected by sampling fluorescence intensity at the excitation wavelength 360 nm (λex360) and emission wavelength 480 nm (λem480) every 71 seconds for one hour using a Synergy H4 plate reader (BioTek Instruments/Agilent Technologies, Winooski, VT) at room temperature.
(§1) For IC50 data, High DDT concentration and/or DiFMUP substrate assays were used; a skilled artisan may use either assay.

B16-F10 cells = assay: Cell proliferation assay (CellTiter-Glo) in B16-F10 cells with IFN-gamma; type: cell-based; conditions: mouse IFN-gamma 10 ng/mL, read-out: PTPN2 Prolif 5d B16F10 EC50
Experimental: B16-F10 cells (ATCC, Manassas, VA, #CRL-6475) were cultured in DMEM growth medium (ThermoFisher Scientific, Waltham, MA, #11995-040) supplemented with 10% heat inactivated FBS (ThermoFisher Scientific, #16140-071) and 1% pen/strep (ThermoFisher Scientific, #15140-122). The cells were seeded into two white opaque 384-well tissue culture treated microplates (PerkinElmer, Waltham, MA, #6007688) at a density of 100 cells/well in 20 uL total volume and incubated overnight at 37 C and 5% CO2. 30 nL of compounds dissolved in DMSO were then transferred from a source plate into target wells with the Echo650 acoustic liquid handler (Beckman Coulter, Indianapolis, IN). Negative control wells received 30 nL of DMSO only (0.15% final concentration). Plates were returned to the incubator for 1 hour and then cells treated with either 5 uL of growth medium or 5 uL of growth medium containing 50 ng/ml of recombinant mouse IFN-gamma protein (R&D Systems, Minneapolis, MN, #485-MI/CF, 10 ng/mL final concentration) using the Assist automated pipetting platform (INTEGRA Biosciences, Hudson, NH). Plates were incubated at 37 C for 4 days and cell proliferation assayed with the CellTiter-Glo reagent (Promega, Madison, WI, #G7573, 25 uL per well). […] Off-target compound mediated cytotoxicity was identified by checking for growth inhibition in the absence of IFNg.

phospho-STAT1 (Tyr701) = assay: Phospho-STAT1 (Tyr701) HTRF assay in B16-F10 cells; type: cell-based; conditions: mouse IFN-gamma 100 ng/ml, 1 hour, read-out: pSTAT1 HTRF B16 EC50
Experimental: B16-F10 cells (ATCC, Manassas, VA, #CRL-6475) were cultured in DMEM growth medium (ThermoFisher Scientific, Waltham, MA, #11995-040) supplemented with 10% heat inactivated FBS (ThermoFisher Scientific, #16140-071) and 1% pen/strep (ThermoFisher Scientific, #15140-122). The cells were seeded into a white opaque 384-well tissue culture treated microplate (PerkinElmer, Waltham, MA, #6007688) at a density of 10,000 cells/well in 20 uL total volume and incubated overnight at 37 C and 5% CO2. 30 nL of compounds dissolved in DMSO were then transferred from a source plate into target wells with the Echo650 acoustic liquid handler (Beckman Coulter, Indianapolis, IN). Negative control wells received 30 nL of DMSO only (0.15% final concentration). Plates were returned to the incubator for 1 hour and then cells treated with either 5 uL of growth medium or 5 uL of growth medium containing 500 ng/ml of recombinant mouse IFN-gamma protein (R&D Systems, Minneapolis, MN, #485-MI/CF, 100 ng/ml final concentration) using the Assist automated pipetting platform (INTEGRA Biosciences, Hudson, NH). Plates were incubated at 37 C for 1 hour and assayed for phosphorylated STAT1 protein levels with the phospho-STAT1 (Tyr701) HTRF kit (Cisbio, Bedford, MA, #63ADK026PEH) according to manufacturer's instructions. HTRF signal intensity was collected with the En Vision 2105 plate reader (PerkinElmer) 24 hours later and analyzed with the Dotmatics software platform to calculate compound IC50 values.

PTPN2 [2] = molecular target: T1, PTPN2; assay: Phosphatase activity assay using DiFMUP as substrate; type: biochemical; set-up: purchased MilliporeSigma SRP5075; conditions: 10 mM DTT, PTPN2 0.15 nM, room temperature, read-out: PTPN2 BCHEM DIFMUP IC50
Experimental: The PTPN2 biochemical assay was performed as follows, a 5× stock solution of human PTPN2 (SRP5075, MilliporeSigma, Burlington, MA) and a 1.25× stock solution of DiFMUP (D6567, ThermoFisher Scientific, Waltham, MA), were prepared in 1× reaction buffer consisting of 50 mM HEPES, pH 7.4, 1 mM EDTA, 150 mM NaCl, 0.2 mg/mL BSA, 100 U/mL catalase and 10 mM DTT. […] of the DiFMUP substrate solution, for a final concentration of […] DiFMUP substrate, was added to a Corning 3574 384-well, white, non-binding surface microtiter plate containing […] of serially diluted test compounds prepared in DMSO. The reactions were started with the addition of […] of the enzyme solution, for a final PTPN2 concentration of 0.15 nM, and monitored every 105 seconds for 60 minutes at λEX 360/λEM 460 in a BioTek Synergy HTX plate reader (Agilent Technologies, Santa Clara, CA) at room temperature. The initial linear portions of the progress curves were fit according to a linear equation to yield the slopes and converted to % inhibition based on a value of 100% activity for the no inhibitor treated control. IC50 values of each compound were obtained by fitting the % inhibition-compound concentration curves using Dotmatics software (Dotmatics, Bishops Stortford, Hertfordshire, England)
as §1

| Compound | IC50 (PTPN2 [1]) | EC50 (B16-F10 cells) | EC50 (phospho-STAT1 (Tyr701)) | IC50 (PTPN2 [2]) | EC50 (B16-F10 cells; 120 h) |
| --- | --- | --- | --- | --- | --- |
| 6-[[3-fluoro-5-hydroxy-4-(1,1,4-trioxo-1,2,5-thiadiazolidin-2-yl)phenyl]methylamino]-4-methyl-pyridine-3-carbonitrile [EXAMPLE 5] | 20 nM | 4760 nM | 4470 nM | 20 nM |  |
| CN(C)c1ccc(NCc2cc(O)c(N3CC(=O)NS3(=O)=O)c(F)c2)cn1 [EXAMPLE 1, 5-[4-[[[6-(dimethylamino)-3-pyridyl]amino]methyl]-2-fluoro-6-hydroxy-phenyl]-1,1-dioxo-1,2,5-thiadiazolidin-3-one] | 20 nM |  | 420 nM | 130 nM | 900 nM |
| Cc1cc(NCc2cc(O)c(N3CC(=O)NS3(=O)=O)c(F)c2)cc(C)n1 [EXAMPLE 2, 5-[4-[[(2,6-dimethyl-4-pyridyl)amino]methyl]-2-fluoro-6-hydroxy-phenyl]-1,1-dioxo-1,2,5-thiadiazolidin-3-one] | 10 nM |  | 14000 nM | 50 nM | 6000 nM |
| Cc1ccnc(C)c1NCc1cc(O)c(N2CC(=O)NS2(=O)=O)c(F)c1 [EXAMPLE 3, 5-[4-[[(2,4-dimethyl-3-pyridyl)amino]methyl]-2-fluoro-6-hydroxy-phenyl]-1,1-dioxo-1,2,5-thiadiazolidin-3-one] | 90 nM |  | 6160 nM | 60 nM | 5370 nM |
| N#Cc1cncc(NCc2cc(O)c(N3CC(=O)NS3(=O)=O)c(F)c2)c1 [EXAMPLE 4, 5-[[3-fluoro-5-hydroxy-4-(1,1,4-trioxo-1,2,5-thiadiazolidin-2-yl)phenyl]methylamino]pyridine-3-carbonitrile] | 44 nM |  | 1850 nM | 11 nM | 1650 nM |
| O=C1CN(c2c(O)cc(CNc3ccc(-c4ccccc4)nc3)cc2F)S(=O)(=O)N1 [EXAMPLE 6, 5-[2-fluoro-6-hydroxy-4-[[(6-phenyl-3-pyridyl)amino]methyl]phenyl]-1,1-dioxo-1,2,5-thiadiazolidin-3-one] | 70 nM |  | 2560 nM | 400 nM | 4240 nM |
| O=C1CN(c2c(O)cc(CNc3cncc(C(F)(F)F)c3)cc2F)S(=O)(=O)N1 [EXAMPLE 7, 5-[2-fluoro-6-hydroxy-4-[[[5-(trifluoromethyl)-3-pyridyl]amino]methyl]phenyl]-1,1-dioxo-1,2,5-thiadiazolidin-3-one] | 40 nM |  | 2300 nM | 100 nM | 3130 nM |
| O=C1CN(c2c(O)cc(CNc3cncc(Cl)c3)cc2F)S(=O)(=O)N1 [EXAMPLE 8, 5-[4-[[(5-chloro-3-pyridyl)amino]methyl]-2-fluoro-6-hydroxy-phenyl]-1,1-dioxo-1,2,5-thiadiazolidin-3-one] | 20 nM |  | 2670 nM | 220 nM | 3900 nM |
| CC(C)c1cnc(NCc2cc(O)c(N3CC(=O)NS3(=O)=O)c(F)c2)nc1 [EXAMPLE 11, 5-[2-fluoro-6-hydroxy-4-[[(5-isopropylpyrimidin-2-yl)amino]methyl]phenyl]-1,1-dioxo-1,2,5-thiadiazolidin-3-one] | 140 nM |  | 1770 nM |  | 6020 nM |
| COc1cnc(C)c(NCc2cc(O)c(N3CC(=O)NS3(=O)=O)c(F)c2)n1 [EXAMPLE 21, 5-[2-fluoro-6-hydroxy-4-[[(6-methoxy-3-methyl-pyrazin-2-yl)amino]methyl]phenyl]-1,1-dioxo-1,2,5-thiadiazolidin-3-one] |  |  | 7860 nM | 20 nM | 7770 nM |
| COc1nc(NCc2cc(O)c(N3CC(=O)NS3(=O)=O)c(F)c2)cnc1C [EXAMPLE 25, 5-[2-fluoro-6-hydroxy-4-[[(6-methoxy-5-methyl-pyrazin-2-yl)amino]methyl]phenyl]-1,1-dioxo-1,2,5-thiadiazolidin-3-one] |  |  | 3430 nM | 20 nM | 11300 nM |
| Cc1ccc(NCc2cc(O)c(N3CC(=O)NS3(=O)=O)c(F)c2)nn1 [EXAMPLE 28, 5-(2-fluoro-6-hydroxy-4-(((6-methylpyridazin-3-yl)amino)methyl)phenyl)-1,2,5-thiadiazolidin-3-one 1,1-dioxide] |  |  | 250 nM | 20 nM | 630 nM |
| Cc1cc(C)nc(NCc2cc(O)c(N3CC(=O)NS3(=O)=O)c(F)c2)n1 [EXAMPLE 29, 5-[4-[[(4,6-dimethylpyrimidin-2-yl)amino]methyl]-2-fluoro-6-hydroxy-phenyl]-1,1-dioxo-1,2,5-thiadiazolidin-3-one] |  |  | 760 nM | 60 nM | 4770 nM |
| O=C1CN(c2c(O)cc(CNc3cnccc3-c3ccc(C(F)(F)F)cc3)cc2F)S(=O)(=O)N1 [EXAMPLE 30, 5-[2-fluoro-6-hydroxy-4-[[[4-[4-(trifluoromethyl)phenyl]-3-pyridyl]amino]methyl]phenyl]-1,1-dioxo-1,2,5-thiadiazolidin-3-one] |  |  | > 15000 nM | 60 nM | > 15000 nM |
| N#Cc1ncc(NCc2cc(O)c(N3CC(=O)NS3(=O)=O)c(F)c2)cn1 [EXAMPLE 32, 5-((4-(1,1-dioxido-4-oxo-1,2,5-thiadiazolidin-2-yl)-3-fluoro-5-hydroxybenzyl)amino)pyrimidine-2-carbonitrile] |  |  | 730 nM | 1 nM | 1380 nM |

Source: US20240228476A1, “INHIBITORS OF PROTEIN TYROSINE PHOSPHATASE, COMPOSITIONS, AND METHODS OF USE” (BRISTOL-MYERS SQUIBB COMPANY, priority 2022, published 2024)
